The values that follow come from the NIST ThermoML archive (doi:10.1021/je800972b).

Numbers after ± are expanded uncertainties.

The term mass density denotes mass per unit of volume.

The conditions of series [1]: 298.15 K; 101.33 kPa; Liquid.
Series [2] can be described thus: xn = mol fraction of the nth substance listed. To be noted: 298.15 K, 101 kPa, Liquid, Vibrating tube method.

For `Cc1ccccc1` [toluene], the mass density in series [1] is given as 862.23 ± 0.18 kg/m3.
The same measure, in the same setting: the figure for `CCCO` [propan-1-ol] is 800.61 ± 0.23 kg/m3; for `C=COCCC` [propyl vinyl ether] it is 762.69 ± 0.26 kg/m3.
With `C=COCCC` [propyl vinyl ether] + Cc1ccccc1, the mass density in series [2] (x1 = 0.0494) is recorded as 857.3 ± 0.22 kg/m3; in series [2] (x1 = 0.1002) it was 852.46 ± 0.22 kg/m3; in series [2] (x1 = 0.1995), 843.05 ± 0.22 kg/m3; in series [2] (x1 = 0.2999) it was 833.4 ± 0.22 kg/m3; in series [2] (x1 = 0.3993) it was 823.66 ± 0.22 kg/m3; in series [2] (x1 = 0.5002), 813.73 ± 0.22 kg/m3. Besides, the mass density is 803.77 ± 0.22 kg/m3 in series [2] (x1 = 0.5999); 793.65 ± 0.22 kg/m3 in series [2] (x1 = 0.6998); 783.69 ± 0.22 kg/m3 in series [2] (x1 = 0.7999); 773.56 ± 0.22 kg/m3 in series [2] (x1 = 0.8993); 768.31 ± 0.22 kg/m3 in series [2] (x1 = 0.95).
